We go through two compounds from patent US20240391862A1, “(1,4,5-TRISUBSTITUTED-1H-PYRAZOL-3-YL)OXY-2-ALKOXY ALKYL ACIDS AND THEIR DERIVATIVES, THEIR SALTS AND THEIR USE AS HERBICIDAL AGENTS” (Bayer AKtiengesellschaft, priority 2021, published 2024).

For data set [1], the system named is POLCO. In words: Post-emergence herbicidal effect, greenhouse pot test. The data set is classed as in vivo, Fallopia convolvulus. The settings on record: 320 g/ha. The gist of the method: (§1)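 Sandy loam pots, greenhouse. One-leaf stage (2–3 wk after sowing) foliar spray; WP/EC in water + 0.5% additive, 600 l/ha; 20–320 g/ha. Visual score ~3 wk, 0–100% vs untreated.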

The subject of data set [2] is AVEFA. The description is as above. Format: in vivo, Avena fatua. The settings on record: 320 g/ha, visual rating about 3 weeks after treatment. The gist of the method: as §1
The subject of data set [3] is ZEAMX. The experiment in a line: Post-emergence herbicidal effect and crop plant compatibility, greenhouse pot test. The settings on record: one-leaf stage, rated visually after about 3 weeks vs untreated controls. Format: in vivo, Zea mays. The gist of the method:
(§2)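 Visual % activity scored roughly 3 weeks post-spray against untreated plants, where 100% means death and 0% equals control. Plants were treated at the one-leaf stage, 2 to 3 weeks after sowing in sandy loam, at 20 to 320 g/ha.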

For data set [4], the system named is TRZAS. The data set is described as above. Format: in vivo, Triticum aestivum. The gist of the method:
as §2

Data set [5] deals with PHBPU. The experiment in a line: Post-emergence herbicidal effect, greenhouse pot test. The data set is classed as in vivo, Ipomoea purpurea. The gist of the method:
as §1

Data set [6] concerns GLXMA. In words: Post-emergence herbicidal effect and crop plant compatibility, greenhouse pot test. The data set is classed as in vivo, Glycine max. The settings on record: 20 g/ha, visual rating about 3 weeks after treatment, crop plant. The text has this: (§3) • ALOMY: Alopecurus myosuroides SETVI: Setaria viridis • AVEFA: Avena fatua POLCO: Fallopia convolvulus • AMARE: Amaranthus retroflexus ECHCG: Echinochloa crus-galli • LOLRJ: Lolium rigidum STEME: Stellaria media • VERPE: Veronica persica MATIN: Tripleurospermum inodorum • DIGSA: Digitaria sanguinalis ABUTH: Abutylon threophrasti • TRZAS: Triticum aestivum VIOTR: Viola tricolor • BRSNW: Brassica napus ZEAMX: Zea mays • PHBPU: Ipomoea purpurea GLXMA: Glycine max • ORYSA: Oryza sativa HORMU: Hordeum murinum
Seeds of monocotyledonous and dicotyledonous weeds and crop plants are placed in sandy loam in plastic or organic planting pots, covered with soil and cultivated in a greenhouse under controlled growth conditions. 2 to 3 weeks after sowing, the trial plants are treated at the one-leaf stage. The compounds of the invention, formulated in the form of wettable powders (WP) or as emulsion concentrates (EC), are then sprayed onto the green parts of the plants as aqueous suspension or emulsion with addition of 0.5% additive at a water application rate of 600 l/ha (converted). After the test plants have been kept in the greenhouse under optimum growth conditions for about 3 weeks, the activity of the preparations is rated visually in comparison to untreated controls. For example, 100% activity=the plants have died, 0% activity=like control plants.
Tables 20a to 38c below show the effects/crop compatibilities of selected compounds of the general formula (I) on various harmful plants at an application rate corresponding to 20 to 320 g/ha, which were obtained by the trial procedure specified above.

In data set [7] the test system is VERPE. In words: Post-emergence herbicidal effect, greenhouse pot test. The settings on record: 320 g/ha. The data set is classed as in vivo, Veronica persica. The gist of the method: as §1
The subject of data set [8] is ALOMY. Described as above. The data set is classed as in vivo, Alopecurus myosuroides. The settings on record: Alopecurus myosuroides, 504 h, visual rating about 3 weeks after treatment, read-out: Post-emergence effect against ALOMY. The gist of the method:
as §1

For data set [9], the system named is ALOMY. In words: Pre-emergence herbicidal effect, greenhouse pot test. Format: in vivo, Alopecurus myosuroides. The settings on record: 320 g/ha, scored visually after about 3 weeks vs untreated controls.
Source text: (§4) Seeds of monocotyledonous and dicotyledonous weed plants and crop plants are placed in plastic or organic planting pots and covered with soil. The compounds of the invention, formulated in the form of wettable powders (WP) or as emulsion concentrates (EC), are then applied to the surface of the covering soil as aqueous suspension or emulsion with addition of 0.5% additive at a water application rate equivalent to 600 l/ha. After the treatment, the pots are placed in a greenhouse and kept under good growth conditions for the trial plants. After about 3 weeks, the effect of the preparations is scored visually in comparison with untreated controls as percentages. For example, 100% activity=the plants have died, 0% activity=like control plants.
(§5) Tables 1a to 19c below show the effects/crop compatibilities of selected compounds of the general formula (I) on various harmful plants at an application rate corresponding to 20 to 320 g/ha, which were obtained by the trial procedure specified above.
as §3

Data set [10] relates to PHBPU. The description is as above. The data set is classed as in vivo, Ipomoea purpurea. The settings on record: 320 g/ha, scored visually after about 3 weeks vs untreated controls.
Source text: as §4, §5, §3

Data set [11] concerns SETVI. In words: Post-emergence herbicidal effect, greenhouse pot test. The data set is classed as in vivo, Setaria viridis. The settings on record: Setaria viridis, 504 h, read-out: Post-emergence effect against SETVI in %. The method, boiled down: as §1
For data set [12], the system named is ECHCG. In words: Pre-emergence herbicidal effect, greenhouse pot test. Format: in vivo, Echinochloa crus-galli. The settings on record: Echinochloa crus-galli, 504 h, 320 g/ha, scored visually after about 3 weeks vs untreated controls, read-out: Pre-emergence effect at 320 g/ha against ECHCG in %.
Source text: as §4, §5, §3

The test system of data set [13] is TRZAS. The experiment in a line: Pre-emergence herbicidal effect and crop plant compatibility, greenhouse pot test. The data set is classed as in vivo, Triticum aestivum. The settings on record: 80 g/ha, scored visually after about 3 weeks vs untreated controls.
Source text: as §4, §5, §3

Data set [14] concerns AMARE. In words: Pre-emergence herbicidal effect, greenhouse pot test. Format: in vivo, Amaranthus retroflexus. The settings on record: scored visually after about 3 weeks vs untreated controls.
Source text: as §4, §5, §3

The test system of data set [15] is POLCO. The data set is described as above. The data set is classed as in vivo, Fallopia convolvulus. The settings on record: Fallopia convolvulus, 504 h, 320 g/ha, scored visually after about 3 weeks vs untreated controls, read-out: Pre-emergence effect at 320 g/ha against POLCO in %.
Source text: as §4, §5, §3

In data set [16] the test system is MATIN. The description is as above. Format: in vivo, Tripleurospermum inodorum. The settings on record: scored visually after about 3 weeks vs untreated controls.
Source text: as §4, §5, §3

Data set [17] relates to VIOTR. In words: Post-emergence herbicidal effect, greenhouse pot test. The data set is classed as in vivo, Viola tricolor. The settings on record: Viola tricolor, 504 h, 320 g/ha, read-out: Post-emergence effect against VIOTR in %. The gist of the method:
as §1

In data set [18] the test system is MATIN. Described as above. Format: in vivo, Tripleurospermum inodorum. The settings on record: Tripleurospermum inodorum, 504 h, read-out: Post-emergence effect against MATIN in %. The method, boiled down: as §1
Data set [19] relates to ECHCG. Described as above. Format: in vivo, Echinochloa crus-galli. The settings on record: Echinochloa crus-galli, 504 h, read-out: Post-emergence effect against ECHCG in %. The gist of the method:
as §1

Data set [20] deals with GLXMA. In words: Pre-emergence herbicidal effect and crop plant compatibility, greenhouse pot test. The data set is classed as in vivo, Glycine max. The settings on record: 80 g/ha, scored visually after about 3 weeks vs untreated controls.
Source text: as §4, §5, §3

With `COC(=O)C(OC)Oc1nn(-c2ccccc2F)c(-c2ccc(F)nc2)c1C(F)(F)C(F)(F)F` (stereo not shown) [Example I-60], the “Post-emergence effect against POLCO in %” value in data set [1] was 90%. Also, the “Post-emergence effect against AVEFA” value in data set [2] came out at 80%. Moreover, the “Post-emergence effect at 20 g/ha against ZEAMX in %” value in [3] (20 g/ha) was found to be 0%. Also, the “Post-emergence effect at 80 g/ha against ZEAMX in %” value in data set [3] (80 g/ha) was determined as 0%. For the same compound, the “Post-emergence effect at 20 g/ha against TRZAS in %” value in data set [4] (20 g/ha, one-leaf stage, rated visually after about 3 weeks vs untreated controls) is 0%. Also, in data set [4] (80 g/ha, visual rating about 3 weeks after treatment, crop plant), the “Post-emergence effect against TRZAS” value was 0%. Besides, the “Post-emergence effect against PHBPU in %” value in data set [5] (320 g/ha) worked out at 90%. Moreover, the “Post-emergence effect against GLXMA” value in [6] is reported as 10%. The “Post-emergence effect against VERPE in %” value in data set [7] worked out at 80%.
For the compound `COC(=O)C(OC)Oc1nn(-c2ncccc2F)c(-c2ccccc2)c1Br` (stereo not shown) [Example I-06], the pest or weed control at 80 g/ha in data set [8] (80 g/ha) amounted to 90%; in data set [11] (80 g/ha) it was 80%; in data set [5] (Ipomoea purpurea, 504 h, 80 g/ha, read-out: Post-emergence effect against PHBPU in %) it was 80%; in [18] (80 g/ha) it was 80%; in [19] (80 g/ha), 80%. For the same compound, the pest or weed control at 320 g/ha in data set [8] (320 g/ha) worked out at 90%; in data set [11] (320 g/ha), 80%; in [12] it was 100%; in data set [2] (Avena fatua, 504 h, read-out: Post-emergence effect against AVEFA), 80%; in data set [5] (Ipomoea purpurea, 504 h, 320 g/ha, read-out: Post-emergence effect against PHBPU in %), 80%; in [14] (Amaranthus retroflexus, 504 h, 320 g/ha, read-out: Pre-emergence effect at 320 g/ha against AMARE in %), 100%. In addition, the pest or weed control at 320 g/ha in data set [15] was determined as 80%; in [16] (Tripleurospermum inodorum, 504 h, 320 g/ha, read-out: Pre-emergence effect at 320 g/ha against MATIN in %), 90%; in data set [17], 80%; in data set [18] (320 g/ha), 80%; in data set [19] (320 g/ha), 80%. In addition, the “Pre-emergence effect at 320 g/ha against ALOMY in %” value in data set [9] is 90%. Further, the “Pre-emergence effect at 320 g/ha against PHBPU in %” value in data set [10] worked out at 90%. The “Pre-emergence effect at 80 g/ha against TRZAS in %” value in data set [13] is 10%. The “Pre-emergence effect at 80 g/ha against AMARE in %” value in [14] (80 g/ha) was found to be 90%. The “Pre-emergence effect at 80 g/ha against MATIN in %” value in [16] (80 g/ha) is recorded as 80%. Moreover, the “Pre-emergence effect at 80 g/ha against GLXMA in %” value in [20] was found to be 10%.
